# System: cell clumps in blood
# Experiment: Cell clumping of biological samples (blood) processed through a microfluidic device
# Format: cell-based
# Settings: DU 2% final working concentration, incubated at room temperature for 30 minutes or overnight, compared with samples without DU (FIGS. 1-4)
# Procedure: In this experiment, DU was dissolved in PBS to make an 80% (w/v) aqueous concentrated solution. The concentrated solution was then added to biological samples in such a way as to yield a final working concentration of 2%. Biological samples were gently mixed with DU solution to ensure equal distribution of DU, and the resulting mixture was incubated at room temperature for at least 30 minutes.
# Samples were then processed according to pre-determined protocols.
# FIG. 1 provides an example of samples without being treated with DU and processed through a microfluidic device. The white strands are cell clumps.
# FIG. 2 provides an example of samples being treated with DU and processed through a microfluidic device (for this particular experiment, the sample and DU were incubated overnight).
# FIG. 3 provides another example of samples without being treated with DU and processed through a microfluidic device.
# FIG. 4 provides another example of samples being treated with DU and processed through a microfluidic device (for this particular experiment, the sample and DU were incubated for 30 minutes.
smiles,measurement,value
"O=C(NCO)N(CO)C1(CO)C(=O)NC(=O)N1CO (stereo not shown) [DU, diazolidinyl urea]",reduction of cellular clumping,great improvement for reducing cellular clumping

# — patent publication US9040255B2, “Use of diazolidinyl urea for anti-clumping of biological samples” (BIOCEPT, INC., priority 2010, dated 2015)
